Assay results from ChEMBL document CHEMBL4190187, “Discovery of pyrazolopyrimidine derivatives as novel inhibitors of ataxia telangiectasia and rad3 related protein (ATR)” (Bioorg Med Chem Lett, 2017).

Experiments:
[1] = target: Ephrin type-A receptor 1 (Homo sapiens) (UniProt P21709); assay: Inhibition of recombinant human EPHA1 ([…]) at 1 uM using KKKSPGEYVNIEFG as substrate after 40 mins in presence of [gamma-33P]ATP by scintillation counting method
[2] = target: Serine/threonine-protein kinase ICK (Homo sapiens) (UniProt Q9UPZ9); assay: Inhibition of recombinant human ICK (1 to 312 residues) at 1 uM using RRRFRPASPLRGPPK as substrate after 120 mins in presence of [gamma-33P]ATP by scintillation counting method
[3] = system: Epidermal growth factor receptor (Homo sapiens), P00533 [L858R,T790M]; assay: Inhibition of recombinant human EGFR T790M/L858R double mutant (696 to end residues) at 1 uM using GGMEDIYFEFMGGKKK as substrate after 40 mins in presence of [gamma-33P]ATP by scintillation counting method
Epidermal growth factor receptor (Homo sapiens), P00533 [L858R,T790M], sequence (P00533 whole entry T790M/L858R, looked up): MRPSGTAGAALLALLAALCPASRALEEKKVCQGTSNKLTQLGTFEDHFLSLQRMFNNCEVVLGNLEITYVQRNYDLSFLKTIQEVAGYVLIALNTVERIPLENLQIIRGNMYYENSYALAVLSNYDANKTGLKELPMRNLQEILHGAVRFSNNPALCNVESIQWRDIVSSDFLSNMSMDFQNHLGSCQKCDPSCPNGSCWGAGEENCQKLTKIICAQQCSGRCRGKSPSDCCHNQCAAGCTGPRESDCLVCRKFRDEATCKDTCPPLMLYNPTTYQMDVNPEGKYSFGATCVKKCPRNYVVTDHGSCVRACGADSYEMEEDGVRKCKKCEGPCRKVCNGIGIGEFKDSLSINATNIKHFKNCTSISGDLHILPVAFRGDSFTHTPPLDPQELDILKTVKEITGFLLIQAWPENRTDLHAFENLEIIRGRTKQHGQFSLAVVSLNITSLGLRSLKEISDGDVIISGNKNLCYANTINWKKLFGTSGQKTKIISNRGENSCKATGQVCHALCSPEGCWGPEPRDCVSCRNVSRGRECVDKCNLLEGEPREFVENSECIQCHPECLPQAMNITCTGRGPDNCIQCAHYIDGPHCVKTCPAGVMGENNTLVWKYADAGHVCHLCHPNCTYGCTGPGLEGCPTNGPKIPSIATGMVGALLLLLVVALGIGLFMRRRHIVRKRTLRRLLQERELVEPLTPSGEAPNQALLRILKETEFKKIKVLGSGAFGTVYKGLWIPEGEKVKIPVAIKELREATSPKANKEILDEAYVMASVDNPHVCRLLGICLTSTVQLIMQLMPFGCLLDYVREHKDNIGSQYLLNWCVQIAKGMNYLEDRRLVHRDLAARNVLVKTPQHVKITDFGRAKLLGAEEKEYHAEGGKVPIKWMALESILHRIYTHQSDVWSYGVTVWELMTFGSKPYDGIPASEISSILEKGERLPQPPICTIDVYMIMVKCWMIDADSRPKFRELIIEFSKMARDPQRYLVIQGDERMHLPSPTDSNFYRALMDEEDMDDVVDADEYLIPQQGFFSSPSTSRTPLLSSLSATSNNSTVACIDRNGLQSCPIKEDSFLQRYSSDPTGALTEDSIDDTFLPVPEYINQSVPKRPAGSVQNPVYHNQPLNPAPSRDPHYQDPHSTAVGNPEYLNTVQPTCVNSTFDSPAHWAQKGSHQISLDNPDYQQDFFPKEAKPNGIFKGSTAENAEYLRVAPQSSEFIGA

[4] = system: Tyrosine-protein kinase ABL1 (Homo sapiens), P00519 [Q252H]; assay: Inhibition of recombinant human Abl Q252H mutant (27 to end residues) at 1 uM using EAIYAAPFAKKK as substrate after 40 mins in presence of [gamma-33P]ATP by scintillation counting method
[5] = target: Homeodomain-interacting protein kinase 1 (Homo sapiens) (UniProt Q86Z02); assay: Inhibition of recombinant human HIPK1 (158 to 555 residues) at 1 uM using myelin basic protein as substrate after 40 mins in presence of [gamma-33P]ATP by scintillation counting method
[6] = system: Tyrosine-protein kinase BTK (Homo sapiens), Q06187 [R28H]; assay: Inhibition of recombinant full-length human BTK R28H mutant at 1 uM using LSNLYHQGKFLQTFCGSPLYRRR as substrate after 40 mins in presence of [gamma-33P]ATP by scintillation counting method
[7] = target: SRSF protein kinase 3 (Homo sapiens) (UniProt Q9UPE1); assay: Inhibition of recombinant full-length human MSSK1 at 1 uM using ERMRPRKRQGSVRRRV as substrate after 40 mins in presence of [gamma-33P]ATP by scintillation counting method
[8] = target: cGMP-dependent protein kinase 1 (Homo sapiens) (UniProt Q13976); assay: Inhibition of recombinant full-length human PKG1alpha at 1 uM using RRRLSFAEPG as substrate after 40 mins in presence of [gamma-33P]ATP by scintillation counting method
[9] = target: Receptor-type tyrosine-protein kinase FLT3 (Homo sapiens) (UniProt P36888); assay: Inhibition of recombinant human Flt3 (564 to end residues) at 1 uM using EAIYAAPFAKKK as substrate after 40 mins in presence of [gamma-33P]ATP by scintillation counting method
[10] = target: Dual specificity tyrosine-phosphorylation-regulated kinase 3 (Homo sapiens) (UniProt O43781); assay: Inhibition of recombinant full-length human DYRK3 at 1 uM using RRRFRPASPLRGPPK as substrate after 40 mins in presence of [gamma-33P]ATP by scintillation counting method
[11] = target: SRSF protein kinase 1 (Homo sapiens) (UniProt Q96SB4); assay: Inhibition of recombinant human SRPK1 (2 to end residues) at 1 uM using RSRSRSRSRSRSRSR as substrate after 40 mins in presence of [gamma-33P]ATP by scintillation counting method
[12] = target: Ephrin type-B receptor 2 (Homo sapiens) (UniProt P29323); assay: Inhibition of recombinant human EPHB2 (560 to end residues) at 1 uM using poly(Glu,Tyr) 4:1 as substrate after 40 mins in presence of [gamma-33P]ATP by scintillation counting method
[13] = target: [Pyruvate dehydrogenase (acetyl-transferring)] kinase isozyme 4, mitochondrial (Homo sapiens) (UniProt Q16654); assay: Inhibition of recombinant full-length human PDHK4 at 1 uM using KKKYHGHSMSDPGVSYRT as substrate after 40 mins in presence of [gamma-33P]ATP by scintillation counting method
[Pyruvate dehydrogenase (acetyl-transferring)] kinase isozyme 4, mitochondrial (Homo sapiens), sequence (Q16654 whole entry, looked up): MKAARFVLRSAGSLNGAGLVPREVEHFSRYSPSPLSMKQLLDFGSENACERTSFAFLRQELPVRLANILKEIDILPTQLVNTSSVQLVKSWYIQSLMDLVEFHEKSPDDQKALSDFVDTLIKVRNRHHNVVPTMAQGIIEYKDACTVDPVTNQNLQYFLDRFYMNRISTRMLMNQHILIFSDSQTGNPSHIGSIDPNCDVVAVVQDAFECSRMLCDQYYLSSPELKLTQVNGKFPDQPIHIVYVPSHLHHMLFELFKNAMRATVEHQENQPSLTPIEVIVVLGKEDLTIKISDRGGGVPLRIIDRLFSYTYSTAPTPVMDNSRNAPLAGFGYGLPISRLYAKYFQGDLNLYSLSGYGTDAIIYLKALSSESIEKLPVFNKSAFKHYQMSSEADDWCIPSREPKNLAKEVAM

[14] = system: Angiopoietin-1 receptor (Homo sapiens), Q02763 [R849W]; assay: Inhibition of recombinant activated human Tie2 R849W mutant (771 to end residues) at 1 uM using EFPIYDFLPAKKK as substrate after 40 mins in presence of [gamma-33P]ATP by scintillation counting method
[15] = target: Serine/threonine-protein kinase ATR (Homo sapiens, UniProt Q13535); assay: Inhibition of recombinant full-length human ATR at 10 uM using GST-cMyc-p53 as substrate after 40 mins in presence of [gamma-33P]ATP by scintillation counting method
Serine/threonine-protein kinase ATR, sequence (Q13535 whole entry, looked up, the tested form may be a part): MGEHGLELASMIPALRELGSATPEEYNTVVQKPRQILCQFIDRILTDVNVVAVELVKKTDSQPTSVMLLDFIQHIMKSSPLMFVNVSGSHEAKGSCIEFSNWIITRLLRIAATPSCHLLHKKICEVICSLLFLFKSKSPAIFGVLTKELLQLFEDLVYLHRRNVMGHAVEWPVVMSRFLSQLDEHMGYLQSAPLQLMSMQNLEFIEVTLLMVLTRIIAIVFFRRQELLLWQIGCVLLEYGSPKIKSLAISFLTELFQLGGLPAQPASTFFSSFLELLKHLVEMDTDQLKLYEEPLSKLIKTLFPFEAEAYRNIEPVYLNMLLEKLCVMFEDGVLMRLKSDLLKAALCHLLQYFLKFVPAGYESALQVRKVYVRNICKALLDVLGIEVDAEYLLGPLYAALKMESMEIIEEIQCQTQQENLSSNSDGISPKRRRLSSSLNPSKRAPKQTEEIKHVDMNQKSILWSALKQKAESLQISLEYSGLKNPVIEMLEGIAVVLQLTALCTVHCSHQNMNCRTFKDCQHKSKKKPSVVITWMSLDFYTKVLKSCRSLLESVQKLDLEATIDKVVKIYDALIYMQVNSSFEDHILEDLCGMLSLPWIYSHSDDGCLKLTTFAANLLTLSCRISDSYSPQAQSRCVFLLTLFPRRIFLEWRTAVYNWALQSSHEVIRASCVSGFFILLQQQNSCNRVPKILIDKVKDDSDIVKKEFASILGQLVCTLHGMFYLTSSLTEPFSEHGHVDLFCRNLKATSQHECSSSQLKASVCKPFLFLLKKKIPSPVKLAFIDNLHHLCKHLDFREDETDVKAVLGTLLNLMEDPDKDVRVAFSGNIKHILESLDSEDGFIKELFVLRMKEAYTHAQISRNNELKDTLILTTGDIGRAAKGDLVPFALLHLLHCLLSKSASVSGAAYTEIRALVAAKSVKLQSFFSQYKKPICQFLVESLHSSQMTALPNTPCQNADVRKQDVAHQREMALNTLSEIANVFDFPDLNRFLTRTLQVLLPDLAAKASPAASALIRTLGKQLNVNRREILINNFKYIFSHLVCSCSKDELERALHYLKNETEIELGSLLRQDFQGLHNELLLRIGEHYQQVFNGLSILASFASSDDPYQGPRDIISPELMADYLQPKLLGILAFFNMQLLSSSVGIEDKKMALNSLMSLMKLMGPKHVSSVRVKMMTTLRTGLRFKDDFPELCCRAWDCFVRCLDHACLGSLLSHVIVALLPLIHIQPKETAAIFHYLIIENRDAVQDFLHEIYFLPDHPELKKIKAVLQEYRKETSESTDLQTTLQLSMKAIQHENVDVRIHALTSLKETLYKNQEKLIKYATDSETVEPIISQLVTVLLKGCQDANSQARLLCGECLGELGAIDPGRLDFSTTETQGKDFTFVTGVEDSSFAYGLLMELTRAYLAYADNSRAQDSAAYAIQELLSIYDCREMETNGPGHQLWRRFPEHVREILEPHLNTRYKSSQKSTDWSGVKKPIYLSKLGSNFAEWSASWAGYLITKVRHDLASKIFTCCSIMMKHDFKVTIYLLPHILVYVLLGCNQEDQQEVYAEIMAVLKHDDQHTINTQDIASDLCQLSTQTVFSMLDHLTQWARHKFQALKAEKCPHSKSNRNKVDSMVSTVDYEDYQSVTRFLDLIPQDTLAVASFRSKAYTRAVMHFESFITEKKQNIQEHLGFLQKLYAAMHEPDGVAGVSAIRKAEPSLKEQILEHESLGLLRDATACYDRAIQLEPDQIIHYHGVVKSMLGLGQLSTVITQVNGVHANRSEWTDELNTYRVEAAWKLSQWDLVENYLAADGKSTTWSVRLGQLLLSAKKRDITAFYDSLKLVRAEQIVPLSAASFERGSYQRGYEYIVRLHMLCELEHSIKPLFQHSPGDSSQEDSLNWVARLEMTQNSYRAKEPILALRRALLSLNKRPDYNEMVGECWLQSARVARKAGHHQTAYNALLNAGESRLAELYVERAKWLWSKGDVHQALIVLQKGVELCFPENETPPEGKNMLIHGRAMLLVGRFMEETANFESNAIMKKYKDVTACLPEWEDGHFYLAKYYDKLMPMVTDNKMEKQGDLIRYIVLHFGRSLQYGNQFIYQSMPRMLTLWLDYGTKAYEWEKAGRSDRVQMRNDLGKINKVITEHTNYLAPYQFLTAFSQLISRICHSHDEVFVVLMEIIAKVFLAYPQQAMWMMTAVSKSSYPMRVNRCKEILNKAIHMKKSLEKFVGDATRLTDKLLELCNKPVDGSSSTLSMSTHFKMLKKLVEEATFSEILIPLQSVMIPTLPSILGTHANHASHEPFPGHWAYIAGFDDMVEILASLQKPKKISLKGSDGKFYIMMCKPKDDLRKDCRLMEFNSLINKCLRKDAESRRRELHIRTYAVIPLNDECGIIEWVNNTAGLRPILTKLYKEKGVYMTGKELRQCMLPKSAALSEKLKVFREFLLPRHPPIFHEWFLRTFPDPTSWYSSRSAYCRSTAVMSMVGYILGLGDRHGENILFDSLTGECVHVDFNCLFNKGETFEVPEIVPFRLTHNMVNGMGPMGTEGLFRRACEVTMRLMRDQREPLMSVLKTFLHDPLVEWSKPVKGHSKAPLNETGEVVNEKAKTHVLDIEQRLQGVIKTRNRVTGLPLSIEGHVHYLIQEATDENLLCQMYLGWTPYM

[16] = target: Ephrin type-A receptor 7 (Homo sapiens) (UniProt Q15375); assay: Inhibition of recombinant human EPHA7 (613 to 909 residues) at 1 uM using KTFCGTPEYLAPEVRREPRILSEEEQEMFRDFDYIADWC as substrate after 40 mins in presence of [gamma-33P]ATP by scintillation counting method
[17] = target: SRSF protein kinase 2 (Homo sapiens) (UniProt P78362); assay: Inhibition of recombinant human SRPK2 (46 to end residues) at 1 uM using RSRSRSRSRSRSRSR as substrate after 40 mins in presence of [gamma-33P]ATP by scintillation counting method
[18] = target: ALK tyrosine kinase receptor (Homo sapiens) (UniProt Q9UM73); assay: Inhibition of recombinant human ALK (1058 to end residues) at 1 uM using KKKSPGEYVNIEFG as substrate after 40 mins in presence of [gamma-33P]ATP by scintillation counting method
[19] = target: Homeodomain-interacting protein kinase 3 (Homo sapiens) (UniProt Q9H422); assay: Inhibition of recombinant human HIPK3 (161 to 562 residues) at 1 uM using myelin basic protein as substrate after 40 mins in presence of [gamma-33P]ATP by scintillation counting method
[20] = target: Serine/threonine-protein kinase tousled-like 2 (Homo sapiens) (UniProt Q86UE8); assay: Inhibition of recombinant human TLK2 (387 to end residues) at 1 uM using casein as substrate after 40 mins in presence of [gamma-33P]ATP by scintillation counting method
[21] = target: Dual specificity mitogen-activated protein kinase kinase 7 (Homo sapiens) (UniProt O14733); assay: Inhibition of recombinant human MKK7beta (2 to end residues) at 1 uM using inactive JNK171 as substrate after 40 mins in presence of [gamma-33P]ATP by scintillation counting method
Dual specificity mitogen-activated protein kinase kinase 7 (Homo sapiens), sequence (O14733 whole entry): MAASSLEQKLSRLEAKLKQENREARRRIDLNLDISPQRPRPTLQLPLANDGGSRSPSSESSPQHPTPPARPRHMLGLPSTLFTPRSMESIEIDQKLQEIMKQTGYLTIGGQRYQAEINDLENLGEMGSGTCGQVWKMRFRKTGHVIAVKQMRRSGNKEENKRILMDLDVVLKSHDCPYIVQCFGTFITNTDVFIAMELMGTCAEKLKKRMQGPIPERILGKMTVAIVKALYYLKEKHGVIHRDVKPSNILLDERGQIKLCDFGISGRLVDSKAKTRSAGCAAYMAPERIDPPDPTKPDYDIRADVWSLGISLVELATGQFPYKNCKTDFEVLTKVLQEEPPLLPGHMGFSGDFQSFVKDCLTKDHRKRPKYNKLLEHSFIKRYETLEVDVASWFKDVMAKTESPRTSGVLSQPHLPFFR

[22] = target: Muscle, skeletal receptor tyrosine-protein kinase (Homo sapiens) (UniProt O15146); assay: Inhibition of recombinant human MUSK (530 to end residues) at 1 uM using myelin basic protein as substrate after 40 mins in presence of [gamma-33P]ATP by scintillation counting method
[23] = target: Serine/threonine-protein kinase 24 (Homo sapiens) (UniProt Q9Y6E0); assay: Inhibition of recombinant human MST3 (1 to 304 residues) at 1 uM using ERMRPRKRQGSVRRRV as substrate after 40 mins in presence of [gamma-33P]ATP by scintillation counting method
Serine/threonine-protein kinase 24 (Homo sapiens), sequence (Q9Y6E0 whole entry, looked up, the tested form may be a part): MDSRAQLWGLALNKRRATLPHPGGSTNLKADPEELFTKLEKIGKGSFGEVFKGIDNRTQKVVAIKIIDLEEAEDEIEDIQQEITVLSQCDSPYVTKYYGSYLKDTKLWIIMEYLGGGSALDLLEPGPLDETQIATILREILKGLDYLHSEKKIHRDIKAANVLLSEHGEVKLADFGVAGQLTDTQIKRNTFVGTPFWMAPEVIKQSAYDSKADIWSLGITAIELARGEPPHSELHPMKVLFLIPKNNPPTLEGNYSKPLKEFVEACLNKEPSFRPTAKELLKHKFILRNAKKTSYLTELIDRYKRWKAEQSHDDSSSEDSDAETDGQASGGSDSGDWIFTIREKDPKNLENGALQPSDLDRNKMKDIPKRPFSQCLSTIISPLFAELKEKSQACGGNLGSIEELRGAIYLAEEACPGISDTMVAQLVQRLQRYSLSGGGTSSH

CS(=O)(=O)c1ccc(-n2nc(-c3cnc4[nH]ccc4c3)c3c(N)ncnc32)cc1
inhibition [1]: 24% | inhibition [2]: -8% | inhibition [3]: 27% | inhibition [4]: 70% | inhibition [5]: -2% | inhibition [6]: 5% | inhibition [7]: -8% | inhibition [8]: -8% | inhibition [9]: 16% | inhibition [10]: -10% | inhibition [11]: 1% | inhibition [12]: 2% | inhibition [13]: -1% | inhibition [14]: 1% | inhibition [15]: 106% | inhibition [16]: 0% | inhibition [17]: 0% | inhibition [18]: -4% | inhibition [19]: 4% | inhibition [20]: 0% | inhibition [21]: -4% | inhibition [22]: -2% | inhibition [23]: 13%
